US20230183356A1, “HIF-1a MODULATORS AND USES THEREOF” (Brown University, priority 2021, published 2023)
Where a SMILES comes first, the peptide text is derived from it. The star is where a group is joined. Cbz = O=C(OCc1ccccc1)*

Tested on: HIF-1α
Assay: Western blot of HIF-1α expression in HCT116 cells
Assay type: cell-based
Settings: for HIF-1α expression / HIF-1α expression increased by Smurf2 knockdown, effect of treatment: HCT116 cells; for HIF-1α expression: normoxia; for HIF-1α expression increased by Smurf2 knockdown, effect of treatment: Smurf2 siRNA 48 hours, normoxia 6 hours, Ro3306 5 μM, palbociclib 10 μM, abemaciclib 1 μM
Experimental: HCT116 cells were obtained from American Type Culture Collection (ATCC) and were maintained according to ATCC recommendation in McCoy's 5A medium (Hyclone) with 10% fetal bovine serum (FBS) (Hyclone) and 1% penicillin/streptomycin (P/S) (Corning). Cells were regularly tested for mycoplasma and authenticated. Cells were maintained at 37° C. in 5% CO2. Hypoxia treatment was performed in a hypoxia chamber (In vivo2, Ruskinn) which maintains 0.5% O2 and 5% CO2 at 37° C.
Plasmid expression was performed by 24 hours transfection using Opti-MEM (Thermo Fisher Scientific) and Lipofectamine 2000 (Life Technologies). Knockdown experiments were performed by siRNA transfection for 48 hours with Opti-MEM and Lipofectamine RNAiMAX (Life Technologies), according to the manufacturer's protocol.
Treated cells were lysed in RIPA buffer (Sigma). Protein concentrations were determined using a BCA Protein Assay Kit (Life Technologies). Equal amounts of total protein were boiled with NuPAGE™ LDS sample buffer (Thermo Fisher Scientific) and reducing agent (Invitrogen) or 2-mercaptoethanol. Samples were analyzed with SDS-PAGE. Proteins were transferred to an Immobilon-P PVDF membrane (EMD Millipore). Primary and secondary antibodies were added in order. Signals were detected after addition of the ECL western blotting substrate (Thermo Fisher Scientific).

For `CC(C)C[C@@H](C=O)NC(=O)[C@H](CC(C)C)NC(=O)[C@H](CC(C)C)NC(=O)OCc1ccccc1` [MG132] (Cbz-Leu-Leu-Leu-aldehyde), the “HIF-1α expression upon Smurf2 overexpression” value (HCT116 cells transfected with myc-Smurf2 plasmid, 6 hours, dose-dependent) was “partially rescued”, the HIF-1α expression (2 μM, 6 hours) was “increased” and the HIF-1α expression (5 μM, 6 hours) was “more robustly”.
In the case of `O=C1NC(=NCc2cccs2)S/C1=C\c1ccc2ncccc2c1` [Ro-3306], the “HIF-1α expression increased by Smurf2 knockdown, effect of treatment” value was “not reversed” and the “HIF-1α expression increased by Smurf2 knockdown, effect of treatment” value (listed as Ro3306) was “further increased”.
